By MIC is commonly meant the least concentration at which growth counts as inhibited.

Values after ≈ are worked out from the molar mass of the structure shown.

In this experiment the test system is Helicobacter pylori. Nature of the experiment: Minimal inhibitory concentration (MIC) against Helicobacter pylori, urease read-out, 5 clinical strains. The format is cell-based. To be noted: 5 H. pylori clinical strains, 10% blood agar, 48 h at 37° C., microaerophilic, read-out: MIC. As for the experimental part: The anti-Helicobacter activity of the subject compounds was assessed by the following in-vitro test procedure.
The activity of test compounds against Helicobacter pylori was determined against a standard set of 5 H. priori strains obtained from clinical material. Minimal inhibitory concentrations (MICs) were determined by measuring the activity of H. pylori urease after treatment of growing cultures of the bacteria with the antimicrobial agents.
The test compounds were dissolved in DMSO at a concentration of 10^-3 M. A dilution to 10^-4 M in DMSO was also prepared. 10 μl volumes of these solutions were pipetted in the wells of Repli-Dishes (®Sterilin). Wells containing DMSO alone were included as controls in each Repli-Dish. Ampicillin ((+)-6-[(2-amino-2-phenylacetyl)amino]-3,3-dimethyl-7-oxo-4-thia-1-azabicyclo[3.2.0]heptane-2-carboxylic acid trihydrate) and metronidazole (2-methyl-5-nitro-1H-imidazol-1-ethanol) were included as reference compounds in each batch of tests. (These compounds were tested at final concentrations of 10^-5, 10^-6, 10^-7 and 10^-8 M). Test plates were stored at 4° C. until used. The five isolates of H. pylori were maintained by subculture on 10% blood agar every 2 or 3 days. The bacteria were grown at 37° C. under an atmosphere containing 5% oxygen, 10% CO2 and 85% nitrogen. Suspensions of Helicobacter pylori for inoculum were prepared in Brain-heart infusion broth and adjusted to an absorbance of 1.5±0.3 at […].
Freshly prepared 10% blood agar held at 45° C. was added in 1 ml volumes to the wells of the test plates, thus diluting the test compounds to 10^-5 and 10^-6 M. The medium was allowed to cool, then 10 μl volumes of bacterial suspension were pipetted on the agar surface. The plates were incubated for 48 h at 37° C. under the microaerophilic atmosphere described above. […] After the 48 h of incubation, 1 ml volumes of urease broth were gently added to each Repli-Dish well and the plates were incubated at 37° C. for 2 h. 100 μl samples of fluid from each well were then pipetted into the wells of 96-place microdilution plates. A purple colour was interpreted as growth, yellow-orange as no growth of H. pylori. By this means a clear end-point was obtained, from which the inhibitory effects could be determined.
Table 1 summarizes the MIC values determined by the above procedure for a subset of the subject compounds.
With `Cc1cc(N2CCN(c3ccc(-n4c(C)nn([C@H](C)[C@H](O)c5ccc(Cl)c(Cl)c5)c4=O)cc3)CC2)cc(C)c1O` (relative stereo) [compound 10, (±)-(R*,R*)-2-[2-(3,4-dichlorophenyl)-2-hydroxy-1-methylethyl]-2,4-dihydro-4-[4-[4-(4-hydroxy-3,5-dimethylphenyl)-1-piperazinyl]phenyl]-5-methyl-3H-1,2,4-triazol-3-one hemihydrate], the minimal inhibitory concentration (MIC) was 1 µM. Next, `Cc1nn(CC(O)c2ccc(OC(F)(F)F)cc2)c(=O)n1-c1ccc(N2CCN(c3ccc(O)cc3)CC2)cc1` (racemic) [compound 36, (±)-2,4-dihydro-4-[4-[4-(4-hydroxyphenyl)-1-piperazinyl]phenyl]-2-[2-hydroxy-2-[4-(trifluoromethoxy)-phenyl]ethyl]-5-methyl-3H-1,2,4-triazol-3-one]: 10 µM (≈ 5.56 µg/mL); `CC[C@H]([C@H](O)c1ccc(Cl)cc1)n1ncn(-c2ccc(N3CCN(c4ccccc4OC)CC3)nc2)c1=O` (relative stereo) [compound 17, (±)-(R*,R*)-2-[1-[(4-chlorophenyl)hydroxymethyl]propyl]-2,4-dihydro-4-[6-[4-(2-methoxyphenyl)-1-piperazinyl]-3-pyridinyl]-3H-1,2,4-triazol-3-one]: 0.1 µM (≈ 0.0535 µg/mL). Next, `CCC(C(=O)c1ccc(Cl)cc1)n1ncn(-c2ccc(N3CCN(c4ccc(OC)cn4)CC3)nc2)c1=O` (racemic) [compound 37, (±)-2-[1-(4-chlorobenzoyl)propyl]-2,4-dihydro-4-[6-[4-(5-methoxy-2-pyridinyl) -1-piperazinyl]-3-pyridinyl]-3H-1,2,4-triazol-3-one]: 0.1 µM (≈ 0.0534 µg/mL).

(Values after patent US5650411A, “Substituted azolone derivatives” (Janssen Pharmaceutica N.V., priority 1993, dated 1997).)
